{"source": "patent US6562317B2", "about": "“Radioactive embolizing compositions” (Micro Therapeutics, Inc., priority 1997, dated 2003)", "assay": "Cure of prepolymer injected into 0.1 N NaHCO3 aqueous solution simulating a blood environment", "type": "physicochemical", "conditions": "cyanoacrylate without iridium, same procedure", "description": "About 0.2 cc of this composition was taken up in a 1 cc syringe through a 21 gage needle and injected into about 150 cc of a 0.1 N NaHCO3 aqueous solution to simulate a blood environment and cure the prepolymer. Upon injection, three small black/gray droplets were formed which immediately fell to the bottom of the container. It took about 15 minutes for the cyanoacrylate to fully cure and to be tack free.", "data": [{"smiles": "C=C(C#N)C(=O)OCCCC", "note": "[cyanoacrylate alone, n-butyl cyanoacrylate]", "values": [{"measurement": "cure time compared with the iridium composition", "value": "cured in approximately the same time"}]}]}
